Assay results as given in ChEMBL document CHEMBL1155682, “Cernuosides A and B, two sucrase inhibitors from Pulsatilla cernua” (J Nat Prod, 2000).

Molecular target: Sucrase-isomaltase, intestinal (Rattus norvegicus, UniProt P23739)
Test: Inhibition of rat intestinal sucrase

Chain of Sucrase-isomaltase, intestinal (P23739 1-1013 limits assumed): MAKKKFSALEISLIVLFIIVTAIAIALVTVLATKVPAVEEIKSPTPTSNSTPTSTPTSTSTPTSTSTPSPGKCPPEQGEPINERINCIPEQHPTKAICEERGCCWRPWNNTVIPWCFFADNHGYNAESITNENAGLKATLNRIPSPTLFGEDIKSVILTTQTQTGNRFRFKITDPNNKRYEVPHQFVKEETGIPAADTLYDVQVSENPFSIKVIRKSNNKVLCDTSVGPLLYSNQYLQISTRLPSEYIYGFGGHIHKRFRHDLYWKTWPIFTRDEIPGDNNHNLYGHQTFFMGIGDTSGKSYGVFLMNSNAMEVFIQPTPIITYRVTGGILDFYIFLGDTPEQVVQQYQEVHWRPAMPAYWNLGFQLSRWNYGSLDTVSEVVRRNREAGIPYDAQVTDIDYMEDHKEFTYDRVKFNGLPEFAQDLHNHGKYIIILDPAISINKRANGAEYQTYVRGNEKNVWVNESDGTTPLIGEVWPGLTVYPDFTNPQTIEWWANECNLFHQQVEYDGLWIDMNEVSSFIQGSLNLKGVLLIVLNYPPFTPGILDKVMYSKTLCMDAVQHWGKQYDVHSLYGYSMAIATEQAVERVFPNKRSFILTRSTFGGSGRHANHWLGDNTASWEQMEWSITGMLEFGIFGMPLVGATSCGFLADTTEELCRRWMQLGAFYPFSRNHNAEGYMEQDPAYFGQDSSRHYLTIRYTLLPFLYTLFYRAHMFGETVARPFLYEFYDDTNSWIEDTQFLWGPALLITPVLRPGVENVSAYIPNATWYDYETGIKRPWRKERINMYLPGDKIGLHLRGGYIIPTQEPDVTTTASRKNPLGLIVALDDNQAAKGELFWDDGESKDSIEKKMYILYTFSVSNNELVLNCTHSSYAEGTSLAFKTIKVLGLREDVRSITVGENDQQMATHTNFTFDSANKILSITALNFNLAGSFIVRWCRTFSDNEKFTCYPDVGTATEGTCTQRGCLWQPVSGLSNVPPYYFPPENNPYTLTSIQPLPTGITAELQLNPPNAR
Chain of Sucrase-isomaltase, intestinal (P23739 1014-1841 limits assumed): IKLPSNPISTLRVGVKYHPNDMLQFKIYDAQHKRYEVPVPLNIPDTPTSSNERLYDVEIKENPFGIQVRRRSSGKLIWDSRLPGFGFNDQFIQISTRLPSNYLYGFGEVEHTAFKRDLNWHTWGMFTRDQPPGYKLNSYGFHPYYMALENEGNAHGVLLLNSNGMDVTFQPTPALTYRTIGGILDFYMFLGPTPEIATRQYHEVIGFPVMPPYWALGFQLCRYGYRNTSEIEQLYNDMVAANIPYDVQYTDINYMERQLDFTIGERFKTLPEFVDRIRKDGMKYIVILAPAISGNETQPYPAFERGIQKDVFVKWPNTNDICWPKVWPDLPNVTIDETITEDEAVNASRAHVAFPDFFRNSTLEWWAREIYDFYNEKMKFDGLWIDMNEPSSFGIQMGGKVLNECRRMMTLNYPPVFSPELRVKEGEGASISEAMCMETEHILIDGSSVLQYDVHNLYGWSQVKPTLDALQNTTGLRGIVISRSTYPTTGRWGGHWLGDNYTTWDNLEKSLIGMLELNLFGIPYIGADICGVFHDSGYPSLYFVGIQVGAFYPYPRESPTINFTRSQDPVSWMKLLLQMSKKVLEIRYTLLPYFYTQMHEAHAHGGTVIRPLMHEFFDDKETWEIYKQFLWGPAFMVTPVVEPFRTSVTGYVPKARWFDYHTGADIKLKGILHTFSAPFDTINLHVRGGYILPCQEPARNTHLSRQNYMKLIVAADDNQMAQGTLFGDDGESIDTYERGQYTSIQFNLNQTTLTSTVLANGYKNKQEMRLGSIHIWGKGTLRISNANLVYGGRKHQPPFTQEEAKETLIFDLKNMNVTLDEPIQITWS

Structure (SMILES)	IC50 [µM]
C[C@@H]1O[C@@H](O[C@H]2[C@H](O)[C@@H](O)[C@H](OC[C@H]3O[C@@H](OC(=O)[C@]45CCC(C)(C)C[C@H]4C4=CC[C@@H]6[C@@]7(C)CC[C@H](O[C@@H]8OC[C@H](O[C@@H]9O[C@H](CO)[C@@H](O)[C@H](O)[C@H]9O)[C@H](O)[C@H]8O[C@@H]8O[C@@H](C)[C@H](O)[C@@H](O[C@@H]9O[C@H](CO)[C@@H](O)[C@H](O)[C@H]9O)[C@H]8O)[C@@](C)(CO)[C@@H]7CC[C@@]6(C)[C@]4(C)CC5)[C@H](O)[C@@H](O)[C@@H]3O)O[C@@H]2CO)[C@H](O)[C@H](O)[C@H]1O [CERNUOSIDE B]	45.8
C[C@@H]1O[C@@H](O[C@H]2[C@H](O)[C@@H](O)[C@H](OC[C@H]3O[C@@H](OC(=O)[C@]45CCC(C)(C)C[C@H]4C4=CC[C@@H]6[C@@]7(C)CC[C@H](O[C@@H]8OC[C@H](O[C@@H]9O[C@H](CO)[C@@H](O)[C@H](O)[C@H]9O)[C@H](O)[C@H]8O[C@@H]8O[C@@H](C)[C@H](O)[C@@H](O[C@@H]9O[C@H](CO)[C@@H](O)[C@H](O)[C@H]9O)[C@H]8O)C(C)(C)[C@@H]7CC[C@@]6(C)[C@]4(C)CC5)[C@H](O)[C@@H](O)[C@@H]3O)O[C@@H]2CO)[C@H](O)[C@H](O)[C@H]1O [CERNUOSIDE A]	59.5
